According to patent publication US7557268B1, “Promoter for expression of a gene and response to infection or wounding” (priority 1999, dated 2009):
Where two headings read alike, the source gives them in different places.

Experiments:
[1] = test system: sugar beet promoter (gus reporter) in transgenic rape lines AG5947-t38, AG5947-t48; assay: Induction of the promoter in leaf disks of transgenic rape by salicylic acid and PMG-elicitor; assay type: cell-based; details: SA 0.5 mM, PMG-Elicitor 25 μg/ml
From the text: In order to examine the effect of salicylic acid and a purified PMG-elicitor from the cell wall of Phytophthora sojae (Valent, 1978) on the promoter activity, leaf disks with a diameter of 14 mm were stamped out of the leaves of greenhouse plants with the aid of a cork punch. The use of leaf disks facilitates the uptake of the salicylic acid or as the case may be the elicitor along the wound edge into the leaf tissue. Respectively 10 leaf disks from leaves of the transformed AG5947-t38 and […] were incubated in 90 mm sized petri dishes in salicylic acid containing medium (LS-medium without sucrose, 5 mM MES pH 7.0, 0.5 mM SA), in PMG-elicitor containing medium (LS-medium without sucrose, 5 mM MES pH 7.0, 25 μg elicitor/ml) or in control medium (LS-medium without sucrose, 5 mM MES pH 7.0) for 16 hours at 24° C. The activity of a promoter is described as in Jefferson (1987) measured by a quantitative determination of the GUS-activity.

[2] = test system: sugar beet promoter (pAG5947-trans, gus reporter) in transgenic tobacco PR1-52; assay: Promoter activity in leaf disks of transgenic tobacco PR1-52 with increasing plant age; assay type: cell-based, Nicotianum tabacum cv. SR1; details: for Separated + SA Specific GUS-Activity: leaf disks, 0.5 mM SA, 16 hours; for SA-Induction: vs fresh harvested control leaves
Protocol: […] SR1. The produced tobacco transformates are given identification PR1-52, PR1-54 and PR1-56. The transformate PR1-52 is multiplied and placed in a greenhouse. After the plant has achieved a height of approximately 20 cm, the activatability of the sugar beet promoter is analyzed depending upon the plant age. For this, 6 leaves of different ages on the plant were selected. The oldest, lowest leaf is given reference number 1 and the youngest, highest leaf is given the reference number 6. From the leaf half of one of each leaf there is stamped out, with the aid of a 14 mm cork punch, respectively 15 equally sized leaf disks. Respectively 5 leaf disks are incubated in 90 mm sized petri dishes in salicylic acid containing medium (LS-Medium without Sucrose, 5 mM MES pH 7.0, 0.5 mM SA), in PMG-elicitor containing medium (LS-Medium without Sucrose, 5 mM MES pH 7.0, 1 unit elicitor/ml) or in control medium (LS-Medium without Sucrose, 5 mM MES pH 7.0) for 16 hours at 24° C. On the next day, from each treated leaf half again 5 disks were stamped out for control purposes. The activity of the promoter in these disks as well as the disks incubated over night were measured according to Jefferson (1987) by a quantitative determination of the GUS-activity. After 16 days the corresponding test is repeated with the still intact leaf halves of the leaves 1-6. The tobacco plant is in the meantime grown and approximately 50-60 cm high. […] The promoter activity increases with increasing age of the transgenic plants. The wounding or as the case may be the elicitation or as the case may be salicylic acid application leads, in the reporter gene plant with high plant age, in all examined leaves to a higher reporter gene activity and therewith promoter activity. The plant age has however no influence on the relative induction of the promoter by wounding, elicitation or salicylic acid application.

[3] = test system: pAG5947-trans promoter (gus reporter) in PR1-52, PR1-54, PR1-56; assay: Promoter activity of pAG5947-trans in leaf disks of transgenic tobacco; assay type: cell-based; details: for SA-Induction: vs fresh harvested control leaves
[4] = test system: pAG516 promoter deletion (gus reporter) in PR4-19, PR4-21, PR4-22; assay: Promoter activity of deletion construct pAG516 in leaf disks of transgenic tobacco; assay type: cell-based; details: for Separated + SA Specific GUS Activity: leaf disks; for SA-Induction: vs fresh harvested control leaves
[5] = test system: pAG2339 promoter deletion (gus reporter) in PR8-2, PR8-3, PR8-12; assay type: cell-based, tobacco; details: leaf disks, SA
[6] = test system: SR1 non-transgenic starting line; assay: GUS activity in leaf disks of the non-transgenic tobacco starting line; assay type: cell-based
[7] = test system: promoter activity (transcript amount) in leaves of sugar beets; assay: Activation of the promoter in sugar beet leaf disks by salicylic acid, RNA-blot with phosphoimager; assay type: cell-based; details: for transcript amount formed by the promoter activity: sugar beet leaf disks, 2.0 mM Salicyclic Acid
Protocol: In order to investigate the reaction of the promoter in sugar beet leaves to abiotic triggers such as wounds or, as the case may be, on the effect of resistance inductors such as salicylic acid, leaf disks (1 cm diameter) were punched out of 12 week old sugar beets with the aid of a cork stamp. Respectively 100 leaf disks were incubated in control medium (LS-Medium without Sucrose, 5 mM MES pH 7.0) or in salicylic acid containing medium (LS-Medium without Sucrose, 5 mM MES pH 7.0, 2.0 mM SA) for 16 hours at 24° C. Total cell RNA was isolated and an RNA-blot analysis was carried out as described above. The intensity of the hybridization as signal on the RNA-blot was quantified with the aid of a Phosphoimager. The promoter activity of the disks in the control set is not constant over the experiment (Table 8). Based on the 0 hour value, the promoter activity in the control set falls slightly after 3 hours, only to then increase over 6 hours and 11 hours until the 24 hour value. After 24 hours the transcript amount in the control set is approximately 3-fold higher than in the beginning of the experiment (0 h). This rise in the promoter activity is to be traced back to the wounding of the leaf tissue during the stamping out of the leaf disks. […] In the salicylic acid containing medium there is likewise a rise in the transcript amount depending upon the time (Table 8). […] Thus the transcript amount after 24 hours is approximately the 8.5-fold of the 0 h value. The cause of the higher activity of the promoter in the salicylic acid containing medium is the inducibility of the promoter by salicylic acid.

O=C(O)c1ccccc1O [SA, salicylic acid]
AG5947-t38 Specific GUS-Activities ([1]; AG5947-t38 leaf disks, 16 hours at 24° C.): 485.3 pMol Mu × min^−1 × mg^−1
AG5947-t38 Induction ([1]; AG5947-t38 leaf disks, vs control medium): 19.8
AG5947-t48 Specific GUS-Activity ([1]; AG5947-t48 leaf disks, 16 hours at 24° C.): 17.2 pMol Mu × min^−1 × mg^−1
AG5947-t48 Induction ([1]; AG5947-t48 leaf disks, vs control medium): 9.2
Separated + SA Specific GUS-Activity ([2]; PR1-52, Leaf 1, t = 0 d): 314.92 pMol Mu × min^−1 × mg^−1
SA-Induction ([2]; PR1-52, Leaf 1, t = 0 d): 5.3
Separated + SA Specific GUS-Activity ([2]; PR1-52, Leaf 1, t = 16 d): 861.82 pMol Mu × min^−1 × mg^−1
SA-Induction ([2]; PR1-52, Leaf 1, t = 16 d): 30.5
Separated + SA Specific GUS-Activity ([2]; PR1-52, Leaf 2, t = 0 d): 205.53 pMol Mu × min^−1 × mg^−1
SA-Induction ([2]; PR1-52, Leaf 2, t = 0 d): 13.6
Separated + SA Specific GUS-Activity ([2]; PR1-52, Leaf 2, t = 16 d): 2358.18 pMol Mu × min^−1 × mg^−1
SA-Induction ([2]; PR1-52, Leaf 2, t = 16 d): 30.7
Separated + SA Specific GUS-Activity ([2]; PR1-52, Leaf 3, t = 0 d): 225.07 pMol Mu × min^−1 × mg^−1
SA-Induction ([2]; PR1-52, Leaf 3, t = 0 d): 21.7
Separated + SA Specific GUS-Activity ([2]; PR1-52, Leaf 3, t = 16 d): 555.62 pMol Mu × min^−1 × mg^−1
SA-Induction ([2]; PR1-52, Leaf 3, t = 16 d): 8.8
Separated + SA Specific GUS-Activity ([2]; PR1-52, Leaf 4, t = 0 d): 117.97 pMol Mu × min^−1 × mg^−1
SA-Induction ([2]; PR1-52, Leaf 4, t = 0 d): 25.7
Separated + SA Specific GUS-Activity ([2]; PR1-52, Leaf 4, t = 16 d): 1561.3 pMol Mu × min^−1 × mg^−1
SA-Induction ([2]; PR1-52, Leaf 4, t = 16 d): 44.5
Separated + SA Specific GUS-Activity ([2]; PR1-52, Leaf 5, t = 0 d): 140.37 pMol Mu × min^−1 × mg^−1
SA-Induction ([2]; PR1-52, Leaf 5, t = 0 d): 29.4
Separated + SA Specific GUS-Activity ([2]; PR1-52, Leaf 5, t = 16 d): 1220.71 pMol Mu × min^−1 × mg^−1
SA-Induction ([2]; PR1-52, Leaf 5, t = 16 d): 9.0
Separated + SA Specific GUS-Activity ([2]; PR1-52, Leaf 6, t = 0 d): 106.35 pMol Mu × min^−1 × mg^−1
SA-Induction ([2]; PR1-52, Leaf 6, t = 0 d): 319.4
Separated + SA Specific GUS-Activity ([2]; PR1-52, Leaf 6, t = 16 d): 1003.47 pMol Mu × min^−1 × mg^−1
SA-Induction ([2]; PR1-52, Leaf 6, t = 16 d): 47.0
Separated + SA Specific GUS Activity ([3]; PR1-52 (pAG5947-trans), leaf disks): 218.93 pMol Mu × min^−1 × mg^−1
SA-Induction ([3]; PR1-52 (pAG5947-trans)): 14.5
Separated + SA Specific GUS Activity ([3]; PR1-54 (pAG5947-trans), leaf disks): 167.83 pMol Mu × min^−1 × mg^−1
SA-Induction ([3]; PR1-54 (pAG5947-trans)): 8.0
Separated + SA Specific GUS Activity ([3]; PR1-56 (pAG5947-trans), leaf disks): 661.19 pMol Mu × min^−1 × mg^−1
SA-Induction ([3]; PR1-56 (pAG5947-trans)): 8.3
change of reporter gene / promoter activity (in words) ([3]; lines PR1-52, PR1-54 and PR1-56 transformed with pAG5947-trans, leaf disks): significant induction
Separated + SA Specific GUS Activity ([4]; PR4-19 (pAG516)): 16.6 pMol Mu × min^−1 × mg^−1
SA-Induction ([4]; PR4-19 (pAG516)): 2.3
Separated + SA Specific GUS Activity ([4]; PR4-21 (pAG516)): 21.3 pMol Mu × min^−1 × mg^−1
SA-Induction ([4]; PR4-21 (pAG516)): 0.6
Separated + SA Specific GUS Activity ([4]; PR4-22 (pAG516)): 19.3 pMol Mu × min^−1 × mg^−1
SA-Induction ([4]; PR4-22 (pAG516)): 3.6
SA-inducibility (in words) ([4]; plants transformed with the construct pAG516, leaf disks): small SA-inducibility
Separated + SA Specific GUS Activity ([5]; PR8-2 (pAG2339)): 1.7 pMol Mu × min^−1 × mg^−1
Separated + SA Specific GUS Activity ([5]; PR8-3 (pAG2339)): 0 pMol Mu × min^−1 × mg^−1
Separated + SA Specific GUS Activity ([5]; PR8-12 (pAG2339)): 0 pMol Mu × min^−1 × mg^−1
Separated + SA Specific GUS Activity ([6]; leaf disks, SA): 6.2 pMol Mu × min^−1 × mg^−1
SA-Induction ([6]; vs fresh harvested control leaves): 0.8
transcript amount after 24 hours relative to the 0 h value ([7]; sugar beet leaf disks in salicylic acid containing medium (2.0 mM SA)): ~8.5 fold
transcript amount formed by the promoter activity ([7]; Time 0 h): 81 PSL (photo stimulated luminescence)-units
transcript amount formed by the promoter activity ([7]; Time 3 h): 107 PSL (photo stimulated luminescence)-units
transcript amount formed by the promoter activity ([7]; Time 6 h): 284 PSL (photo stimulated luminescence)-units
transcript amount formed by the promoter activity ([7]; Time 11 h): 513 PSL (photo stimulated luminescence)-units
transcript amount formed by the promoter activity ([7]; Time 24 h): 688 PSL (photo stimulated luminescence)-units
